Drawing on PubChem BioAssay (NCI), this text covers TGI for 17 compounds.

Some test systems named below: HOP-92 NSCLC; OVCAR-5 ovarian; KM12 colon; OVCAR-3 ovarian; EKVX NSCLC; HL-60(TB) leukemia; SK-MEL-5 melanoma; HS 578T breast.
Assay in all cases: growth of human tumour cells (NCI), 48 h

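Following 48 hours of exposure in 96-well plates, responses at five concentrations were used to interpolate endpoints linearly. TGI: concentration producing complete growth inhibition.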

Turning to `NS(=O)(=O)c1ccc(N=Nc2ccc(O)c(C(=O)O)c2)cc1`, the TGI with HOP-92 NSCLC, in the assay with OVCAR-5 ovarian, in the assay on KM12 colon, in the assay on OVCAR-3 ovarian, with EKVX NSCLC and in the assay with HL-60(TB) leukemia was more than 100 µM in each case. Moreover, the TGI in the assay with SK-MEL-5 melanoma and in the assay on HS 578T breast was more than 100 µM throughout.

With `CCOC(=O)/C=C/[C@@H](CC)O[Si](C(C)C)(C(C)C)C(C)C`, the TGI in the assay with HOP-92 NSCLC, in the assay on OVCAR-5 ovarian, with KM12 colon, in the assay on OVCAR-3 ovarian, with EKVX NSCLC and with SK-MEL-5 melanoma was more than 100 µM throughout. The same compound showed a TGI in the assay on HS 578T breast of more than 100 µM.

As to `CSCCCNC(=O)[C@H](CSC)NC(=O)c1csc(CCNC(=O)[C@@H](NSc2ccccc2[N+](=O)[O-])C(C)O)n1` (stereo partly drawn), the TGI in the assay with HOP-92 NSCLC, in the assay with OVCAR-5 ovarian, in the assay on KM12 colon, in the assay with OVCAR-3 ovarian, with EKVX NSCLC and in the assay on HL-60(TB) leukemia was more than 100 µM throughout. Moreover, the TGI in the assay on SK-MEL-5 melanoma and in the assay on HS 578T breast was more than 100 µM throughout.

`FC(F)(F)c1ccc2nc(Sc3ccc4ccccc4c3)cnc2c1`: the TGI in the assay on HOP-92 NSCLC, in the assay with OVCAR-5 ovarian, in the assay on KM12 colon, in the assay on EKVX NSCLC, in the assay with HL-60(TB) leukemia and in the assay with SK-MEL-5 melanoma was more than 100 µM in each case. Also, in the assay with HS 578T breast, the TGI is more than 100 µM.

Consider `COc1ccc(CNc2nc3ccccc3nc2C(=O)O)cc1`, for which the TGI with HOP-92 NSCLC, in the assay on OVCAR-5 ovarian, in the assay with KM12 colon, in the assay on OVCAR-3 ovarian, in the assay on EKVX NSCLC and in the assay on HL-60(TB) leukemia was more than 100 µM throughout. Moreover, the TGI in the assay with SK-MEL-5 melanoma and with HS 578T breast was more than 100 µM in each case.

For `COCCN1C(=O)C2c3[nH]c4ccccc4c3C3CCC(C(C)(C)C)CC3C2C1=O` (stereo not drawn), the TGI in the assay with KM12 colon was 38.9 µM; in the assay with OVCAR-3 ovarian, 33.8 µM; with EKVX NSCLC, 38.2 µM; in the assay with HL-60(TB) leukemia it was 37.6 µM; in the assay with SK-MEL-5 melanoma, 30.9 µM; in the assay on HS 578T breast it was 38.8 µM.

For the compound `CN1CCN([C@H]2C[C@H]3[C@@H]4CC=C5C[C@@H](O)CC[C@]5(C)[C@H]4CC[C@]3(C)[C@H]2O)CC1`, the TGI in the assay on HOP-92 NSCLC is more than 100 µM; with OVCAR-5 ovarian, more than 82.8 µM; with KM12 colon it was more than 86.3 µM; in the assay on OVCAR-3 ovarian, more than 57.8 µM; with EKVX NSCLC, more than 100 µM; in the assay on HL-60(TB) leukemia it was 39.7 µM. For the same compound, the TGI in the assay on SK-MEL-5 melanoma was more than 54.7 µM; in the assay on HS 578T breast, more than 100 µM.

Take `COC1CC(OC2C(C)OC(OC3C(C)OC(OC4C(C)OC(O[C@H]5CC[C@@]6(C)C(=CC[C@]7(O)[C@@H]6C[C@@H](O)[C@@]6(C)[C@]7(O)CC[C@@]6(O)C(C)=O)C5)CC4OC)CC3OC)CC2OC)OC(C)C1O` (stereo partly drawn): the TGI with HOP-92 NSCLC, in the assay with OVCAR-5 ovarian, with KM12 colon, in the assay on OVCAR-3 ovarian, in the assay on EKVX NSCLC and in the assay on HL-60(TB) leukemia was more than 12.5 µM in each case. The TGI in the assay on SK-MEL-5 melanoma and in the assay on HS 578T breast was more than 12.5 µM in each case.

On to `CCOC(=O)C(C(=O)COC(C)(C)C)[C@@H]1C=C[C@H](OC(C)=O)C1` (stereo partly drawn), for which the TGI in the assay on OVCAR-5 ovarian, in the assay on KM12 colon, in the assay with OVCAR-3 ovarian, in the assay on EKVX NSCLC and in the assay with HS 578T breast was more than 100 µM each time.

Consider `N#Cc1nc(-c2cccc(-c3nc(C#N)c(N)o3)n2)oc1N`, for which the TGI with HOP-92 NSCLC, with OVCAR-5 ovarian, with KM12 colon, in the assay on OVCAR-3 ovarian, in the assay with EKVX NSCLC and with HL-60(TB) leukemia was more than 100 µM in each case. Further, the TGI with SK-MEL-5 melanoma and in the assay on HS 578T breast was more than 100 µM throughout.

Turning to `O=c1[nH]c2ccc([N+](=O)[O-])cc2nc1/C=C(\O)c1ccccc1`, the TGI is more than 100 µM in the assay with OVCAR-5 ovarian; more than 100 µM in the assay on KM12 colon; 99.2 µM with OVCAR-3 ovarian; more than 100 µM in the assay on EKVX NSCLC; more than 100 µM in the assay with SK-MEL-5 melanoma; 8.93 µM in the assay with HS 578T breast.

Regarding `Cc1ccc(S(=O)(=O)Nn2c(O)c(C#N)c(-c3ccc([N+](=O)[O-])cc3)c(C#N)c2=O)cc1`, the TGI in the assay with HOP-92 NSCLC, with OVCAR-5 ovarian, in the assay with KM12 colon, with EKVX NSCLC, in the assay with HL-60(TB) leukemia and in the assay on SK-MEL-5 melanoma was more than 100 µM each time.

With `NN/C(=N\S(=O)(=O)c1ccc(S(=O)(=O)c2ccccc2)s1)Nc1ccc(Cl)cc1`, the TGI was 73.3 µM in the assay with HOP-92 NSCLC; more than 100 µM with OVCAR-5 ovarian; 49.3 µM in the assay on KM12 colon; 72.2 µM in the assay on OVCAR-3 ovarian; 50.4 µM in the assay with EKVX NSCLC; 62.2 µM in the assay on HL-60(TB) leukemia. Further, the TGI in the assay on SK-MEL-5 melanoma was 46.2 µM.

Consider `COC(=O)c1cc(/C=C\c2cc(OC)ccc2OC)ccc1OC`, for which the TGI was more than 100 µM in the assay with OVCAR-5 ovarian; more than 100 µM in the assay on KM12 colon; 65.8 µM with OVCAR-3 ovarian; 88.9 µM in the assay with EKVX NSCLC; 34.5 µM in the assay with SK-MEL-5 melanoma; more than 100 µM with HS 578T breast.

As for `NC(=O)Oc1ccccc1`, the TGI in the assay on HOP-92 NSCLC, with KM12 colon, in the assay with OVCAR-3 ovarian, with HL-60(TB) leukemia, in the assay with SK-MEL-5 melanoma and in the assay with HS 578T breast was more than 100 µM each time.

For `CC/C(=C\c1ccc(OC)cc1)c1ccc(OC)cc1`, the TGI in the assay with HOP-92 NSCLC is more than 100 µM; in the assay on OVCAR-5 ovarian, more than 100 µM; in the assay with KM12 colon, more than 100 µM; with OVCAR-3 ovarian it was more than 100 µM; with EKVX NSCLC it was more than 100 µM; in the assay with SK-MEL-5 melanoma it was 80.7 µM. The TGI in the assay on HS 578T breast is more than 100 µM.

Take `O=[N+]([O-])/C(C(Cl)=C(Cl)Cl)=C(/Nc1ccccc1)Sc1ccccc1`: the TGI stood at 68.3 µM in the assay with HOP-92 NSCLC; 36 µM with KM12 colon; 30.1 µM in the assay on OVCAR-3 ovarian; 38 µM in the assay on EKVX NSCLC; 42.4 µM in the assay with HL-60(TB) leukemia; 36.7 µM in the assay on SK-MEL-5 melanoma. In the assay on HS 578T breast, the TGI was more than 100 µM.
